The values below come from ChEMBL document CHEMBL1145582, “4,5-Disubstituted oxazolidinones: High affinity molecular effectors of RNA function” (Bioorg Med Chem Lett, 2008).

Active and inactive are the calls of the source. The rule behind the calls is not given here.

The nature of assay [1]: Binding affinity at RNAs 3'-Fl-18-Rh-AM1A T box antiterminator model RNA by FRET assay. The arrangement: species or system Bacillus subtilis.
A short description of assay [2]: Binding affinity at 3'-Fl-18-Rh-C11U T box antiterminator model RNA by FRET assay. Details: species or system Bacillus subtilis.
Assay [3] concerns the target T1, Guanyl-specific ribonuclease T1 (Aspergillus oryzae (strain ATCC 42149 / RIB 40)) (UniProt P00651).
T1 sequence (whole entry): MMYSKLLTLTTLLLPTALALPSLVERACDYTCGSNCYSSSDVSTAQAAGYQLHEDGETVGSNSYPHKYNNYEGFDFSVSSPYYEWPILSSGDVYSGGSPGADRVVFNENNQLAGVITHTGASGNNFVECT
Put plainly: Reduction of Aspergillus oryzae RNase T1 induced cleavage at position 8 of AM1A T box antiterminator model RNA. Details: scale not given: the % may be the effect or the level left.

Assay [4] in a line: Binding affinity at AM1A T box antiterminator model RNA in presence of cognate tRNA. The arrangement: species or system Bacillus subtilis.
Assay [5] concerns the target T1, Guanyl-specific ribonuclease T1 (Aspergillus oryzae (strain ATCC 42149 / RIB 40)). Put plainly: Reduction of Aspergillus oryzae RNase T1 cleavage in position 7 of AM1A T box antiterminator model RNA. The arrangement: scale not given: the % may be the effect or the level left.
The target is the same in assay [6]. Put plainly: Reduction of Aspergillus oryzae RNase T1 cleavage in position 9 of AM1A T box antiterminator model RNA. The arrangement: scale not given: the % may be the effect or the level left.
For assay [7] the target is unchanged. Put plainly: Enhancement of Aspergillus oryzae RNase T1 cleavage in position 15 of AM1A T box antiterminator model RNA.
The next assay concerns Bacillus subtilis. Put plainly: Reduction of Bacillus subtilis tRNA-glycine-dependent antitermination at 1.3 mM in presence on RNA polymerase. Details: scale not given: the % may be the effect or the level left.
For assay [8], the target named is T1, Guanyl-specific ribonuclease T1 (Aspergillus oryzae (strain ATCC 42149 / RIB 40)). Put plainly: Decrease in Aspergillus oryzae RNase T1 cleavage in AM1A T box antiterminator model RNA.

`O=C(Cc1ccccc1)OC[C@H]1OC(=O)N[C@@H]1Cc1ccccc1`: the Kd (usually the free concentration of one partner at which half of the binding sites on the other are occupied at equilibrium, for simple one-to-one binding) is 9 µM in assay [1] and 125 µM in assay [2].

Turning to `CCCCCCCC(=O)OC[C@H]1OC(=O)N[C@@H]1CN(C)c1ccccc1`, the values for the Kd in [1] and in assay [2] were 6.6 µM and 4.1 µM, respectively.

In the case of `CN(C[C@H]1NC(=O)O[C@@H]1COC(=O)Cc1ccccc1)c1ccccc1`, the Kd in assay [1] is 61 µM; in assay [2], 122 µM.

For `O=C(Cc1ccccc1)OC[C@H]1OC(=O)N[C@@H]1CN1CCN(c2ccccc2)CC1`, the Activity in [3] was determined as 41%; in assay [5], 44%; in assay [6], 57%; in assay [7] it was 70%; in the assay on Bacillus subtilis, 40%. Also, the Kd in [1] stood at 13 µM; in [4] it was 64 µM; in [2] it was 100 µM.

`O=C(Cc1ccccc1)OC[C@H]1OC(=O)N[C@@H]1CN1CCOCC1` gave a Kd in assay [1] of 42 µM.

In [1], `CN(CCc1ccccc1)C[C@H]1NC(=O)O[C@@H]1COC(=O)Cc1ccccc1` returned a Kd of 114 µM.

Turning to `CC(=O)c1ccc(NC(=O)OC[C@H]2OC(=O)N[C@@H]2CN2CCN(c3ccccc3)CC2)cc1`, the Kd in [1] is 0.9 µM; in assay [2] it was less than 1 µM. Further, in [8], the result was Active.
